We go through two compounds from ChEMBL document CHEMBL5038581, “Design, synthesis, and biological evaluation of novel dual inhibitors targeting lysine specific demethylase 1 (LSD1) and histone deacetylases (HDAC) for treatment of gastric cancer” (Eur J Med Chem, 2021).

Series [1] can be described thus: Metabolic stability in rat liver microsomes assessed as half life in presence of NADPH at 1 uM by LC-MS/MS analysis. In kind it is ADME, Microsome.
Series [2] has as its system MGC-803. The series can be described thus: Induction of apoptosis in human MGC-803 cells assessed as apoptotic cells at 5 uM incubated for 48 hrs by annexin V-FITC and PI staining based flowcytometry analysis (Rvb =4.3 %). It counts as functional.
Series [3] concerns the target Histone deacetylase 8 (Homo sapiens, UniProt Q9BY41). The series is described as follows: Inhibition of HDAC8 (unknown origin) using Ac-peptide as substrate preincubated for 15 mins followed by substrate addition by fluorescence based microplate reader analysis.
Series [4] deals with MGC-803. The series can be described thus: Induction of apoptosis in human MGC-803 cells assessed as decrease in Bcl2 protein expression at 1.25 to 7.5 uM incubated for 48 hrs by western blot analysis. In kind it is functional, cell-based. To be noted: dose 1.25-7.5 µM.
Series [5] relates to MGC-803. The series can be described thus: Inhibition of cell migration in human MGC-803 cells 0.2 to 0.8 uM up to 24 hrs by wound healing assay. It counts as functional, cell-based. To be noted: dose 0.2-0.8 µM, time hrs <=24.
Series [6] deals with CYP3A4 (Homo sapiens, UniProt P08684). The series is described as follows: Inhibition of CYP3A4 (unknown origin) at 10 uM using testosterone as substrate relative to control. It counts as ADME. To be noted: probe testosterone.
CYP3A4, sequence (P08684 whole entry): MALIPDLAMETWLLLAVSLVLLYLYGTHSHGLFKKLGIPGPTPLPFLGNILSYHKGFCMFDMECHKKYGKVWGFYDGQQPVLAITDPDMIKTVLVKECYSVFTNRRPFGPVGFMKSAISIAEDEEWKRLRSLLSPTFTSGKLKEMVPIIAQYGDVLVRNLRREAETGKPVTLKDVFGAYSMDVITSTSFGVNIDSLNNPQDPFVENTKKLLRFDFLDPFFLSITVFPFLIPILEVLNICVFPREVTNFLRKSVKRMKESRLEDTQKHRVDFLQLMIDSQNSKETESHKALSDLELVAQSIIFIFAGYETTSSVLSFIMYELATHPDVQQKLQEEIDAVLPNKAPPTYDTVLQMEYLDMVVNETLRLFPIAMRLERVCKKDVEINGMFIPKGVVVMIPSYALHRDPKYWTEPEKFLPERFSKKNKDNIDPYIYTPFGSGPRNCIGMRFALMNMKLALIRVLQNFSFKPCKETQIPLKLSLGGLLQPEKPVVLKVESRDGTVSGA
A short description of series [7]: Metabolic stability in human liver microsomes assessed as half life in presence of NADPH at 1 uM by LC-MS/MS analysis. It counts as ADME, Microsome.
Series [8] deals with Amine oxidase [flavin-containing] A (Homo sapiens, UniProt P21397). The series is described as follows: Inhibition of human recombinant MAO-A by multimode plate reader assay.
Amine oxidase [flavin-containing] A, sequence (P21397 whole entry): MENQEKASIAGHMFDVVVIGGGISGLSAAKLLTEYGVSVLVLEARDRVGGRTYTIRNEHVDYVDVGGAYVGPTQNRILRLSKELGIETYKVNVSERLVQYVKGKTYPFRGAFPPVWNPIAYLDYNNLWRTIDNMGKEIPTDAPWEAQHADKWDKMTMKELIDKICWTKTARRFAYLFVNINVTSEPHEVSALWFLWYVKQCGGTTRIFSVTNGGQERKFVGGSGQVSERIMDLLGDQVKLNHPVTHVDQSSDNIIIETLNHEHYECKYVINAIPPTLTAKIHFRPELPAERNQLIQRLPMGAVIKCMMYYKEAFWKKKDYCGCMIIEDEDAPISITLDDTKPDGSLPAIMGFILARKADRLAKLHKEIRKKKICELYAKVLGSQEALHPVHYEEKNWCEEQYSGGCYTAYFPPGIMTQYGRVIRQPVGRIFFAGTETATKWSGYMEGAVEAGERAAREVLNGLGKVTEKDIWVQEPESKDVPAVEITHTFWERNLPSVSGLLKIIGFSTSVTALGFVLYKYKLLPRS
The test system of series [9] is MGC-803. The series can be described thus: Induction of apoptosis in human MGC-803 cells assessed as apoptotic cells at 2.5 uM incubated for 48 hrs by annexin V-FITC and PI staining based flowcytometry analysis (Rvb =4.9 %). In kind it is functional.
Series [10] deals with T1, CYP1A2 (Homo sapiens, UniProt P05177).
T1 sequence (P05177 whole entry): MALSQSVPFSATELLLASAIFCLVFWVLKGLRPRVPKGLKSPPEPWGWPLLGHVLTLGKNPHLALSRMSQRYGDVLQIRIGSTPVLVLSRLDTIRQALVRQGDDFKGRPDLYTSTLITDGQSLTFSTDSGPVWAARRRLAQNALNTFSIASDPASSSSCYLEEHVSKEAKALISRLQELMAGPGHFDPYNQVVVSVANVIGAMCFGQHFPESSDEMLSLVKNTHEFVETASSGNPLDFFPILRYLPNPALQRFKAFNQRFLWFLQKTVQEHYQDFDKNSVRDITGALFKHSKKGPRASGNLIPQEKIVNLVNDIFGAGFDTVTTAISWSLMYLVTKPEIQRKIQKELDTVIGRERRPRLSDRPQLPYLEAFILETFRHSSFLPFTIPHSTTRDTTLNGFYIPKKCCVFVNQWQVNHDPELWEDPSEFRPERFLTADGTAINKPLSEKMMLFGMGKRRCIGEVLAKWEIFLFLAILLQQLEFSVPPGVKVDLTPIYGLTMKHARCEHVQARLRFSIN
The series is described as follows: Inhibition of CYP1A2 (unknown origin) at 10 uM using phenacetin as substrate relative to control. In kind it is ADME. As to conditions: probe phenacetin.

The target of series [11] is CYP2C19 (Homo sapiens, UniProt P33261). The series can be described thus: Inhibition of CYP2C19 (unknown origin) at 10 uM using S-mephenytoin as substrate relative to control. It counts as ADME. As to conditions: probe S-mephenytoin.
CYP2C19, sequence (P33261 whole entry): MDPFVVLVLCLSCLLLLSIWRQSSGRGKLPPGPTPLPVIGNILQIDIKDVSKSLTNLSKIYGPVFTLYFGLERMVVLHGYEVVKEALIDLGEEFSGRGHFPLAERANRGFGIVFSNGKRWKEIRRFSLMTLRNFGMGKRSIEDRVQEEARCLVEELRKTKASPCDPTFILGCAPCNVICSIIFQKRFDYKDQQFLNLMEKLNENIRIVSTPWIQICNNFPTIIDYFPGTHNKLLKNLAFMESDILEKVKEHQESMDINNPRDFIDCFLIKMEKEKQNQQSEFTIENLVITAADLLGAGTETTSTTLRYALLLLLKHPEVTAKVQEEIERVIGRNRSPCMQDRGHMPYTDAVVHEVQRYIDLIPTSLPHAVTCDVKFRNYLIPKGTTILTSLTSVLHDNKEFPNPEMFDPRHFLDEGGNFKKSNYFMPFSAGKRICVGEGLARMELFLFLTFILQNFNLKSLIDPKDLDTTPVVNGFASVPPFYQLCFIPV
Series [12] is described as follows: Metabolic stability in rat liver microsomes assessed as intrinsic clearance in presence of NADPH at 1 uM by LC-MS/MS analysis. It counts as ADME, Microsome. To be noted: read-out: CLH.
Series [13] can be described thus: Metabolic stability in human liver microsomes assessed as intrinsic clearance in presence of NADPH at 1 uM by LC-MS/MS analysis. In kind it is ADME, Microsome. To be noted: read-out: CLH.
The subject of series [14] is MGC-803. The series is described as follows: Induction of apoptosis in human MGC-803 cells assessed as increase in Bax protein expression at 1.25 to 7.5 uM incubated for 48 hrs by western blot analysis. To be noted: dose 1.25-7.5 µM. It counts as functional, cell-based.
Series [15] deals with Amine oxidase [flavin-containing] B (Homo sapiens, UniProt P27338). The series is described as follows: Inhibition of human recombinant MAO-B by multimode plate reader assay.
Amine oxidase [flavin-containing] B, sequence (P27338 whole entry): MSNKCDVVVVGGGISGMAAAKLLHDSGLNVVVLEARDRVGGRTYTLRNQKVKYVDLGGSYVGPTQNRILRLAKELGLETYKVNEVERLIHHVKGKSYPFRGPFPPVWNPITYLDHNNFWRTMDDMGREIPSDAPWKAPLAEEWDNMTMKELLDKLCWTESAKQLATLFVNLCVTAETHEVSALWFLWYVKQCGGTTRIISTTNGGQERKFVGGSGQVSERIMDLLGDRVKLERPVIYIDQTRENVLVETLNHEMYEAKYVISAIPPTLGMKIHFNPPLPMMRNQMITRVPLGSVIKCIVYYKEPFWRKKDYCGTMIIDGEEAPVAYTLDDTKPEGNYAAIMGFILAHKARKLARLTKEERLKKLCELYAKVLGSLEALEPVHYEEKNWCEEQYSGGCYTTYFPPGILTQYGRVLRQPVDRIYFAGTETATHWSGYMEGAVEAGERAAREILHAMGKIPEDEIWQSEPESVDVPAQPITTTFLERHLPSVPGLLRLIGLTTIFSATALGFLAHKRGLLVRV
Series [16] has as its target CYP2C9 (Homo sapiens, UniProt P11712). The series is described as follows: Inhibition of CYP2C9 (unknown origin) at 10 uM using diclofenac as substrate relative to control. In kind it is ADME. To be noted: probe diclofenac.
The target in series [17] is CYP2D6 (Homo sapiens, UniProt P10635). The series is described as follows: Inhibition of CYP2D6 (unknown origin) at 10 uM using dextromethorphan as substrate relative to control. In kind it is ADME. As to conditions: probe dextromethorphan.
CYP2D6, sequence (P10635 whole entry): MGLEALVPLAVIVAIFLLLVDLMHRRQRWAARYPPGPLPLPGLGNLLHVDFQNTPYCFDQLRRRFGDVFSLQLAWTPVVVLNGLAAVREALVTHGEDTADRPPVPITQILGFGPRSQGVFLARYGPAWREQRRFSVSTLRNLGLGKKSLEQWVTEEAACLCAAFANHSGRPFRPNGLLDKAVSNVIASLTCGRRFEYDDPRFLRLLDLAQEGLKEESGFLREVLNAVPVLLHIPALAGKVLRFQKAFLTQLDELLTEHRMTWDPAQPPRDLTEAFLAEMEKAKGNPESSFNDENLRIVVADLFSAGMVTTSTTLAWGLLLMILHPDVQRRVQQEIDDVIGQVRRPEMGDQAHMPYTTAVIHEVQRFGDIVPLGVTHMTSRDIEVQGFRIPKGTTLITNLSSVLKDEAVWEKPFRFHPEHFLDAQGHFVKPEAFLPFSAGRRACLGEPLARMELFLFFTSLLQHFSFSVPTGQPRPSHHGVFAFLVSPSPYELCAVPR
Series [18] has as its target Histone deacetylase 1 (Homo sapiens, UniProt Q13547). The series is described as follows: Inhibition of HDAC1 (unknown origin) using Ac-peptide as substrate preincubated for 15 mins followed by substrate addition by fluorescence assay.
Series [19] deals with Histone deacetylase 5 (Homo sapiens, UniProt Q9UQL6). The series is described as follows: Inhibition of HDAC5 (unknown origin) using Ac-peptide as substrate preincubated for 15 mins followed by substrate addition by fluorescence assay.
Histone deacetylase 5, sequence (Q9UQL6 whole entry): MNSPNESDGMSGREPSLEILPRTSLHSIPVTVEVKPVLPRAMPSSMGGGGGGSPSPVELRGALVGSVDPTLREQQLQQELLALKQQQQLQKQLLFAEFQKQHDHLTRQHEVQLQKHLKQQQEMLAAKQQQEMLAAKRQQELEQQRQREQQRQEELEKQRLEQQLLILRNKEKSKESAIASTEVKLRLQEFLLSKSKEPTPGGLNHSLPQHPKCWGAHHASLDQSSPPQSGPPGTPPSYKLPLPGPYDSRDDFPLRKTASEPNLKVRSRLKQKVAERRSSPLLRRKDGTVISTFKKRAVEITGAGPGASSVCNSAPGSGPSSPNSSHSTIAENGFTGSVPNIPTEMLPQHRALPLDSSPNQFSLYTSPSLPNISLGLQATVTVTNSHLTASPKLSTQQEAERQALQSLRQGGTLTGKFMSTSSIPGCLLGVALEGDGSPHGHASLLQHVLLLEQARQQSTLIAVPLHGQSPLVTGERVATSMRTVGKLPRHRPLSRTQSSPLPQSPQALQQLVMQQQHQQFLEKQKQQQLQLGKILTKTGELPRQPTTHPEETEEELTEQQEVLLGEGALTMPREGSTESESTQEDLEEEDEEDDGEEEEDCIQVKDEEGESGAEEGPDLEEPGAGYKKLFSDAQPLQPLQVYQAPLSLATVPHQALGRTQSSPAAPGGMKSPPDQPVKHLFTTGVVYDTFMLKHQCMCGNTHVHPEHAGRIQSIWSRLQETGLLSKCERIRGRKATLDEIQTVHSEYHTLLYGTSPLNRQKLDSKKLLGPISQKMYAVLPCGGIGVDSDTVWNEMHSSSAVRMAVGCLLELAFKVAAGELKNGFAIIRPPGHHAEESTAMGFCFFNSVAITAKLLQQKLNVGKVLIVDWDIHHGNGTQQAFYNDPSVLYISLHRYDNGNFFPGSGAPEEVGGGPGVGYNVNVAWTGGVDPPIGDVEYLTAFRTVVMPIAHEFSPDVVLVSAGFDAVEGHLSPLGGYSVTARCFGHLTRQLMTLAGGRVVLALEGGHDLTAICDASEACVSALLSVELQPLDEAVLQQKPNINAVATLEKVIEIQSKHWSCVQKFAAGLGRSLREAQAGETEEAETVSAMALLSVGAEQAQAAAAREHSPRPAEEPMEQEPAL

Histone deacetylase 1, sequence (Q13547 whole entry): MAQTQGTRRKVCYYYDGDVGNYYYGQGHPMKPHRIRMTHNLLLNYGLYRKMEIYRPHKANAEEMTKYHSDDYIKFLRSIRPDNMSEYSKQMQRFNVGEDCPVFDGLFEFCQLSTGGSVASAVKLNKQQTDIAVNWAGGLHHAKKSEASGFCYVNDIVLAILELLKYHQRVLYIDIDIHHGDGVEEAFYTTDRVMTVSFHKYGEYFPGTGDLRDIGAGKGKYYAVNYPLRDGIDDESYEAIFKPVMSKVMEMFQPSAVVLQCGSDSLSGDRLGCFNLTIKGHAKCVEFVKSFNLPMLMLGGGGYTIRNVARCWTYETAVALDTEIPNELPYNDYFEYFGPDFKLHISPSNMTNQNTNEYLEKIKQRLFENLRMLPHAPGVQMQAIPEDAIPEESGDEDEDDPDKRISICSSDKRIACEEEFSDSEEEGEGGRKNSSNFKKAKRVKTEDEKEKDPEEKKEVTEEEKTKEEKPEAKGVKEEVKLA
Histone deacetylase 8, sequence (Q9BY41 whole entry): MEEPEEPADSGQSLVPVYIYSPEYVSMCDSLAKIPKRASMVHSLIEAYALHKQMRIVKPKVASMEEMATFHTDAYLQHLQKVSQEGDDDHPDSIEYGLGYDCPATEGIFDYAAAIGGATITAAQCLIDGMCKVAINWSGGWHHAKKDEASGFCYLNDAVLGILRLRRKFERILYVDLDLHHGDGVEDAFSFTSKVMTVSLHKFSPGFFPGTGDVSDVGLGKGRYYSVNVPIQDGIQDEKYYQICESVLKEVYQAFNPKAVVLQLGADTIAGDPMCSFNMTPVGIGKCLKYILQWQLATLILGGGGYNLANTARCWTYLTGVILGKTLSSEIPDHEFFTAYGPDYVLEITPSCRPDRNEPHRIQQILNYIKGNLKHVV
CYP2C9, sequence (P11712 whole entry): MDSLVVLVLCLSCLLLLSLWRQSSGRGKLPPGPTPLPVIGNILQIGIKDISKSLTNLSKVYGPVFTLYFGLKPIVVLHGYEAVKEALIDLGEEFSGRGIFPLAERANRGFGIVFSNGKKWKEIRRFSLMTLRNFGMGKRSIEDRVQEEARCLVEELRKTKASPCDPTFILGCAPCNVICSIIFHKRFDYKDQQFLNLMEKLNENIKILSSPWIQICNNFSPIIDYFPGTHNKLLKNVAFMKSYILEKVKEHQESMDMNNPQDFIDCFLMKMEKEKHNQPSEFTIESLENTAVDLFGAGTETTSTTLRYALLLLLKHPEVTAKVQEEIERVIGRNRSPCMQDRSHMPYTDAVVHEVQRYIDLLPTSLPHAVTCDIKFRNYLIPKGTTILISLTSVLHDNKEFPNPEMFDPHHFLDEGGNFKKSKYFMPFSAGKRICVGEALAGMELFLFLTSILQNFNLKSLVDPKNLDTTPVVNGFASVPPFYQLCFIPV

With `Cc1ccc(-c2cc(/C=C/c3ccc(C(=O)NO)cc3)ccn2)c(F)c1`, the half-life at 1 µM in series [1] came out at 17.2 min; in series [7] it was 51.3 min. The Activity in series [2] was 82.2%; in [4], “Dose-Dependent Effect”; in series [9] it was 77.9%; in series [14], “Dose-Dependent Effect”. Also, the IC50 in [3] is 8.78 µM; in series [8] it was over 100 µM; in [15], over 100 µM; in [18], 0.37 µM; in series [19], over 10 µM. The inhibition entry in [5] was “Dose-Dependent Effect”. Also, the inhibition at 10 µM in [6] worked out at 47.6%; in series [10], 0.95%; in series [11], 22.8%; in [16], 11.7%; in series [17] it was 5.8%. For the same compound, the microsomal CLint at 1 µM came out at 202 µL/min/mg in series [12] and 67.4 µL/min/mg in [13].
For `O=C(NO)c1ccc(/C=C/c2ccnc(-c3ccccc3O)c2)cc1`, the half-life at 1 µM was 6.9 min in series [1] and 33 min in series [7]. The Activity in series [2] is 71.9%; in series [4] it was “Dose-Dependent Effect”; in series [9] it was 33.2%; in series [14], “Dose-Dependent Effect”. Moreover, the 50% inhibitory concentration (IC50) in [3] is 4.62 µM; in series [8], 34.1 µM; in series [15] it was 69.4 µM; in series [18], 0.22 µM; in series [19], over 10 µM. In series [5], the inhibition entry is “Dose-Dependent Effect”. The inhibition at 10 µM is 87.9% in [6]; 48.4% in [10]; 18.7% in [11]; 13.1% in [16]; 15% in [17]. Moreover, the microsomal CLint at 1 µM stood at 505 µL/min/mg in [12] and 105 µL/min/mg in [13].
